Values after ≈ are worked out from the molar mass of the structure shown.
Assays:
[1] = system: Tobacco mosaic virus; experiment: Antiviral activity against TMV U1 infected on 20 mins compound treated fresh leaves from 5 to 6 growth stage Nicotiana glutinosa assessed as inhibition of virus growth at 50 ug/ml cultured at 25 degC for 72 hrs by half-leaf method; type: functional; conditions: U1, in Nicotiana glutinosa
[2] = system: Tobacco mosaic virus; experiment: Antiviral activity against 30 mins compound pre-treated TMV U1 infected on Nicotiana glutinosa leaves assessed as virus inactivation effect by measuring local lesion numbers after 3 to 4 days post virus inoculation at 50 ug/ml by half-leaf method; type: functional; conditions: U1, in Nicotiana glutinosa
[3] = system: Tobacco mosaic virus; experiment: Antiviral activity against TMV U1 infected on compound smeared Nicotiana glutinosa leaves assessed as virus infection protective effect by measuring local lesion numbers after 3 to 4 days post virus inoculation at 200 ug/ml by half-leaf method; type: functional; conditions: U1, in Nicotiana glutinosa
[4] = system: Tobacco mosaic virus; experiment: Antiviral activity against TMV U1 infected on Nicotiana glutinosa leaves smeared with virus before compound treatment assessed as virus infection curative effect by measuring local lesion numbers after 3 to 4 days post virus inoculation at 200 ug/ml by half-leaf method; type: functional; conditions: U1, in Nicotiana glutinosa
[5] = system: Tobacco mosaic virus; experiment: Antiviral activity against 30 mins compound pre-treated TMV U1 infected on Nicotiana glutinosa leaves assessed as virus inactivation effect by measuring local lesion numbers after 3 to 4 days post virus inoculation at 50 ug/ml by half-leaf method relative to untreated control; type: functional; conditions: U1, in Nicotiana glutinosa
[6] = system: Tobacco mosaic virus; experiment: Antiviral activity against 30 mins compound pre-treated TMV U1 infected on Nicotiana glutinosa leaves assessed as virus inactivation effect by measuring local lesion numbers after 3 to 4 days post virus inoculation at 40 ug/ml by half-leaf method relative to untreated control; type: functional; conditions: U1, in Nicotiana glutinosa
[7] = system: Tobacco mosaic virus; experiment: Antiviral activity against 30 mins compound pre-treated TMV U1 infected on Nicotiana glutinosa leaves assessed as virus inactivation effect by measuring local lesion numbers after 3 to 4 days post virus inoculation at 30 ug/ml by half-leaf method relative to untreated control; type: functional; conditions: U1, in Nicotiana glutinosa
[8] = system: Tobacco mosaic virus; experiment: Antiviral activity against 30 mins compound pre-treated TMV U1 infected on Nicotiana glutinosa leaves assessed as virus inactivation effect by measuring local lesion numbers after 3 to 4 days post virus inoculation at 20 ug/ml by half-leaf method relative to untreated control; type: functional; conditions: U1, in Nicotiana glutinosa
[9] = system: Tobacco mosaic virus; experiment: Antiviral activity against 30 mins compound pre-treated TMV U1 infected on Nicotiana glutinosa leaves assessed as virus inactivation effect by measuring local lesion numbers after 3 to 4 days post virus inoculation at 10 ug/ml by half-leaf method relative to untreated control; type: functional; conditions: U1, in Nicotiana glutinosa
[10] = system: Tobacco mosaic virus; experiment: Antiviral activity against 30 mins compound pre-treated TMV U1 infected on Nicotiana glutinosa leaves assessed as virus inactivation effect by measuring local lesion numbers after 3 to 4 days post virus inoculation at 5 ug/ml by half-leaf method relative to untreated control; type: functional; conditions: U1, in Nicotiana glutinosa
[11] = system: Tobacco mosaic virus; experiment: (§1) Antiviral activity against 30 mins compound pre-treated TMV U1 infected on Nicotiana glutinosa leaves assessed as virus inactivation effect by measuring local lesion numbers after 3 to 4 days post virus inoculation by half-leaf method relative to untreated control; type: functional, organism-based
[12] = system: HL-60; experiment: Cytotoxicity against human HL60 cells incubated for 48 hrs by MTT assay; type: functional, cell-based; conditions: HL-60, 48 h
[13] = system: SMMC-7721; experiment: Cytotoxicity against human SMMC7721 cells incubated for 48 hrs by MTT assay; type: functional, cell-based; conditions: SMMC-7721, 48 h
[14] = system: A549; experiment: Cytotoxicity against human A549 cells incubated for 48 hrs by MTT assay; type: functional, cell-based; conditions: A549, 48 h
[15] = system: MCF7; experiment: Cytotoxicity against human MCF7 cells incubated for 48 hrs by MTT assay; type: functional, cell-based; conditions: MCF7, 48 h
[16] = system: SW480; experiment: Cytotoxicity against human SW480 cells incubated for 48 hrs by MTT assay; type: functional, cell-based; conditions: SW480, 48 h
[17] = system: Tobacco mosaic virus; experiment: as §1, with “Potency index, ratio of IC50 for ningnanmycin to IC50 for test compound” for “Antiviral activity”; type: functional

Row | SMILES | inhibition at 50 µg/mL [1] | inhibition at 50 µg/mL [2] | inhibition at 200 µg/mL [3] | inhibition at 200 µg/mL [4] | inhibition at 50 µg/mL [5] | inhibition at 40 µg/mL [6] | inhibition at 30 µg/mL [7] | inhibition at 20 µg/mL [8] | inhibition at 10 µg/mL [9] | inhibition at 5 µg/mL [10] | IC50 [11] | IC50 [12] | IC50 [13] | IC50 [14] | IC50 [15] | IC50 [16] | Ratio IC50 [17]
1 | C/C=C(\C)C(=O)O[C@H]1C[C@@H](OC(C)=O)[C@@]2(C)CO[C@H]3[C@@H](O)[C@@]4(C)C5=C(C)[C@H](c6ccoc6)C[C@H]5O[C@@H](OC)C[C@@H]4[C@]1(C)[C@@H]32 | 98.5% | 88.9% | 63.8% | 44.9% | 86.9% | 70.3% | 63.5% | 30.7% | 16.4% | 6.3% | 28.1 µg/mL (≈ 46.9 µM) | > 10 µM | > 10 µM | > 10 µM | > 10 µM | > 10 µM | 
2 | CC(=O)O[C@H]1C[C@H]2[C@](C)(C3=CC[C@@H](c4ccoc4)[C@@]31C)[C@H](OC(C)=O)C[C@H]1C(C)(C)OC(=O)C[C@H](OC(C)=O)[C@@]12C [MUNRONOID L] | 80% | 61.4% | 42.1% | 23.7% | 60.8% | 57.6% | 51.4% | 48% | 21.5% | 10.2% | 29 µg/mL (≈ 50.8 µM) | > 10 µM | > 10 µM | > 10 µM | > 10 µM | > 10 µM | 
3 | CC(=O)O[C@@H]1[C@@H]2[C@@]3(C)[C@@H](OC(C)=O)CC(=O)OC(C)(C)[C@@H]3CC(=O)[C@@]2(C)[C@@]23O[C@@H]2C[C@@H](c2ccoc2)[C@]3(C)[C@H]1OC(C)=O | 97.6% | 95.3% | 60.2% | 57.6% | 93.9% | 91.4% | 80.3% | 64.9% | 28.7% | 9.7% | 20.4 µg/mL (≈ 34 µM) | > 10 µM | > 10 µM | > 10 µM | > 10 µM | > 10 µM | 
4 | CC(=O)O[C@@H]1[C@@H]2[C@@]3(C)C=CC(=O)OC(C)(C)[C@@H]3CC(=O)[C@@]2(C)[C@@]23O[C@@H]2C[C@@H](c2ccoc2)[C@]3(C)[C@H]1OC(C)=O | 98.9% | 98.2% | 56.7% | 52.8% | 95.6% | 92.3% | 86.1% | 62.3% | 30.9% | 11.8% | 19.6 µg/mL (≈ 36.3 µM) | > 10 µM | > 10 µM | > 10 µM | > 10 µM | > 10 µM | 2

Source: ChEMBL document CHEMBL3580639, “Bioactive Limonoid Constituents of Munronia henryi” (J Nat Prod, 2015)
